Active and inactive are the calls of the source.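 Rule for the calls: active = 40% activation versus positive control reached by fitted dose-response curve at or below highest valid tested dose; inconclusive = poor fit quality, or flat fit with activation between 30% and 70%; inactive = the rest.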
Experiment: inactive X chromosome reactivation in XiGFP fibroblasts, dose response, imaging, 68-5-11 mouse fibroblasts, GFP, cherry-pick (AID 743394);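 note: sensitizer 5-aza-dC present in the wells at 0.5 mM final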
Settings: 68-5-11 mouse fibroblast XiGFP reporter, % GFP-positive imaging, 3 d; at 19.5 µM (top of the series)
For O=C(c1cccc2ccccc12)C1CCCN(Cc2ccon2)C1 (stereo not drawn), the activation was 0.107% (inactive).
With O=c1[nH]c(=O)n(CCC2=CCCCC2)c(O)c1/C=N/Nc1ccccc1 the activation was -0.002% (inactive).
For C[n+]1c(-c2ccccc2)c2cc(N)ccc2c2ccc(N)cc21, the activation was 1.19% (inactive).

Same assay, conditions: 68-5-11 mouse fibroblast XiGFP reporter, % GFP-positive imaging, 3 d; at 19.5 µM (top of the series); cells co-treated with 5-aza-dC sensitizer; scaled: neutral wells 0, ellipticine wells 100
For O=C(Nc1ccc(F)cc1)N1CC(=O)N2[C@H](CO)[C@H](c3ccc(C#Cc4ccc(F)cc4)cc3)[C@@H]2C1, the activation was -0.031% (inactive).
For CCN1C(=O)C(=Cc2cccc(OC)c2Oc2ccc([N+](=O)[O-])cc2[N+](=O)[O-])SC1=S, the activation was -0.008% (inactive).
In the case of O=c1c2cc(-c3ccccc3)sc2nc2n1N=C(c1ccccc1)CS2, the activation is reported as 1.54% (inactive).
For CC(=O)c1ccc2c(c1)OCCOCCOCCOCCOCCO2, the activation was -0.021% (inactive).
In the case of O=C(Nc1ccccc1N1CCCCC1)c1cnccn1, the activation is reported as -0.052% (inactive).
In the case of COCCN(C(=S)Nc1cccc(C)c1)C(C)c1cccnc1 (stereo not drawn), the activation is reported as 0.005% (inactive).
In the case of COc1ccc(OCCN2CCC(C(=O)NC(c3ccc(C)cc3)c3ccccn3)CC2)cc1 (stereo not drawn), the activation is reported as 0.883% (inactive).
With O=C(Nc1cccc(C(=O)O)c1)/C(=C\c1ccccc1)NC(=O)c1ccc(Br)o1 the activation was 0.02% (inactive).
With O=C(CCn1nc(-c2ccc(Cl)cc2)c2ccccc2c1=O)NN1CCOCC1 the activation was -0.017% (inactive).
For CCCOc1ccc(Oc2nc(-c3ccncc3)nc3ccccc23)cc1, the activation was 0.003% (inactive).
In the case of NC(=NC(=O)c1cccc(C(F)(F)F)c1)c1ccc(C(F)(F)F)cn1, the activation is reported as 0.408% (inactive).
In the case of O=C1N[C@H](Cc2ccccc2)COCc2cn(nn2)CC[C@@H]1Cc1ccccc1, the activation is reported as 0.033% (inactive).
With Cn1c(=O)c2[nH]c(-c3ccc(S(=O)(=O)O)cc3)nc2n(C)c1=O the activation was 0.001% (inactive).
For O=c1[nH]nc(SCCS(=O)(=O)c2ccc(F)cc2)n1-c1ccccc1C(F)(F)F, the activation was -0.024% (inactive).
For CC(=O)Nc1ccc(N2Cc3ccccc3C2)cc1, the activation was -0.053% (inactive).
With O=C(COC(=O)c1cc(=O)[nH]c(=O)[nH]1)Nc1cccc(S(=O)(=O)N2CCCCC2)c1 the activation was 0.052% (inactive).
With COc1ccc(S(=O)(=O)N(C)C[C@H]2Oc3ccc(NS(=O)(=O)c4ccc(F)cc4)cc3CC(=O)N([C@@H](C)CO)C[C@@H]2C)cc1 the activation was 0.034% (inactive).
In the case of CCOC(=O)C1=c2/c(=C/c3ccncc3)c(N)c(C(=O)OC)n2C(=O)C(c2ccncc2)S1 (stereo not drawn), the activation is reported as 0.188% (inactive).
In the case of COc1ccc(Cl)cc1C(=O)Nc1ccccc1N1CCCCC1, the activation is reported as 1.48% (inactive).
For CC(C)(C)[S@@](=O)N1Cc2cc(C(=O)N3CCCCC3)nc(-c3cccc(-c4cccc(C#N)c4)c3)c2[C@H]1CCO, the activation was -0.031% (inactive).
For Cc1cccc(NCc2ccc(O)c3ncccc23)c1C, the activation was 0.288% (inactive).
For CC1CN(C(=O)/C=C/c2ccc([N+](=O)[O-])s2)CC(C)O1 (stereo not drawn), the activation was -0.075% (inactive).
With Nc1ccccc1C#CC(=O)c1ccccc1 the activation was -0.07% (inactive).
With COc1ccccc1OCCOc1ccc(/C=C2\C(=N)N3N=C(S(C)(=O)=O)SC3=NC2=O)cc1 the activation was 0.042% (inactive).
For C=CCN(CC(O)c1cccc([N+](=O)[O-])c1)C(C)CCc1ccccc1 (stereo not drawn), the activation was -0.039% (inactive).
In the case of COc1cc(CN2CCC(C(=O)NCC(C)(C)CN(C)C)CC2)ccc1OCc1ccccc1, the activation is reported as -0.029% (inactive).
With Cc1n[nH]c(=S)n1/N=C/c1ccc(-c2ccc(Cl)cc2)o1 the activation was 1.87% (inactive).
With CC(O)(c1ccccc1)c1nc(-c2ccncc2)cs1 (stereo not drawn) the activation was 0.105% (inactive).
With CCC1Oc2ccc(C)cc2N(CC(=O)N2CCCC2)C1=O (stereo not drawn) the activation was 0.113% (inactive).
In the case of COC(=O)CCN1CCC(c2cc(-c3cccc(C(F)(F)F)c3)n[nH]2)CC1, the activation is reported as 0.056% (inactive).
For NNC(=O)c1sc(-c2ccc(Cl)cc2)cc1N, the activation was 2.31% (inactive).
For Cc1cc(NC(=O)CSc2nnc(-c3c[nH]c4ccccc34)n2-c2ccc(F)cc2)no1, the activation was 0.139% (inactive).
For CNC(=O)C[C@H]1C(=O)N(c2ccccc2)C[C@@H]1C, the activation was 0.464% (inactive).
With C[C@@H]1CN(C)C(=O)Cc2cc(N(C)C)ccc2O[C@@H]1CN(C)S(C)(=O)=O the activation was 0.115% (inactive).
With C=CCn1c(SCC(=O)N(CC)C2CCS(=O)(=O)C2)nc2sc3c(c2c1=O)CCC3 (stereo not drawn) the activation was -0.061% (inactive).
In the case of Cc1ccc(/C=C/C(=O)N2CCN(S(=O)(=O)/C=C/c3ccccc3)CC2)o1, the activation is reported as 0.382% (inactive).
In the case of CCN(CC(=O)Nc1sc2c(c1C#N)CCCC2)CC(=O)NC1CCS(=O)(=O)C1 (stereo not drawn), the activation is reported as -0.032% (inactive).
In the case of CCN(CC)CCCN=Cc1c(O)n(-c2cccc(C)c2)c(=O)c2ccccc12, the activation is reported as -0.005% (inactive).
In the case of C[C@@H]1CN([C@@H](C)CO)C(=O)c2cc(NS(=O)(=O)c3ccccc3)ccc2O[C@@H](C)CCCCO[C@@H]1CN(C)Cc1ccc2c(c1)OCO2, the activation is reported as 0% (inactive).
For COc1ccc2c3c([nH]c2c1)[C@@H](CO)N(Cc1cc(F)ccc1F)CC31CCN(C(C)=O)CC1, the activation was -0.023% (inactive).
For COC(=O)c1cc(NS(=O)(=O)c2ccc(NC(C)=O)cc2)ccc1Cl, the activation was -0.044% (inactive).
With CC(C)N1C(=O)C(=O)N(CC(=O)N2CCc3ccccc32)C1=O the activation was -0.031% (inactive).
In the case of NC(=O)c1sc2nc3c(cc2c1N)CCCCCC3, the activation is reported as 0.065% (inactive).
For CN(C)C(=O)CN1CCN(Cc2nc(CC3CC3)no2)CC1, the activation was -0.032% (inactive).
For COc1cc(/C=C/C(=O)c2ccc3c(c2)OCCO3)cc(Br)c1OCC(=O)N(C)C, the activation was -0.06% (inactive).
With CC(=O)NC(c1ccc(Cl)cc1)c1c(O)ccc2ccc(O)cc12 (stereo not drawn) the activation was 0.013% (inactive).
With COc1ccc(Cc2c(O)nc(SCC(=O)NC34CC5CC(CC(C5)C3)C4)[nH]c2=O)cc1 the activation was 0.41% (inactive).
With CN(C)/C=C1\C=C2C(=O)c3ccccc3N2C1=O the activation was 4.14% (inactive).
For COc1ccccc1C(=O)Nc1nnc(S(=O)(=O)N2CCCCCC2)s1, the activation was 0.014% (inactive).
In the case of O=C(Nc1ccccc1)N1C[C@@H]2[C@H](c3ccccc31)[C@H](CO)N2C(=O)c1ccccc1F, the activation is reported as 0.2% (inactive).
For CSc1ccc(CN2C(=O)NC3(CCCCCCC3)C2=O)cc1, the activation was 0.616% (inactive).
With O=C(NCCO)/C(=C/c1ccco1)NC(=O)c1ccco1 the activation was -0.047% (inactive).
With Cc1ccc(S(=O)(=O)NN2C(=O)/C(=C/c3ccccn3)SC2=S)cc1 the activation was 0.025% (inactive).
For C[C@@H]1C[C@H]2[C@@H]3CCC4=CC(=O)C=C[C@]4(C)[C@@]3(F)[C@@H](O)C[C@]2(C)[C@H]1C(=O)CO, the activation was 0.179% (inactive).
For Cc1c(/C=N\NC(=O)c2cc3ccccc3o2)c2ccccc2n1C, the activation was -0.044% (inactive).
For COc1ccc(N2C(=O)C3CCCN3C2c2cccc(OC)c2)cc1 (stereo not drawn), the activation was 0.02% (inactive).
In the case of O=C1C=CC(=O)C(CNc2ccc(C(=O)OCc3ccccc3)cc2)=C1, the activation is reported as -0.05% (inactive).
For C[C@@H]1COc2cccc(NCCO)c2S(=O)(=O)N1, the activation was 0.028% (inactive).
In the case of C[C@@H]1CN([C@H](C)CO)C(=O)c2cc(NS(=O)(=O)c3ccc(F)cc3)ccc2O[C@@H](C)CCCCO[C@@H]1CN(C)Cc1ccc2c(c1)OCO2, the activation is reported as 9.16% (inactive).
With CCOc1ccc(C(Nc2cccnc2)c2cc(Cl)c3cccnc3c2O)cc1 (stereo not drawn) the activation was 8.68% (inactive).
With Cc1cc(NC(=O)c2ccccc2)n(-c2nc3ccccc3[nH]2)n1 the activation was -0.016% (inactive).
In the case of Cc1ccc(-c2ccc3c(c2)O[C@@H](CN(C)Cc2ccncc2)[C@@H](C)CN([C@@H](C)CO)S3(=O)=O)cc1, the activation is reported as 0% (inactive).
With C[C@@H]1CCCCO[C@H](CN(C)Cc2ccc3c(c2)OCO3)[C@@H](C)CN([C@H](C)CO)C(=O)c2cc(NS(=O)(=O)c3ccc(F)cc3)ccc2O1 the activation was 0.107% (inactive).
In the case of COc1ccc2c3c(n(C)c2c1)[C@H](CO)N(C(=O)CN1CCOCC1)CC31CCN(C(=O)Nc2cccc(F)c2)CC1, the activation is reported as -0.035% (inactive).
For CCOc1ccc(C(=O)c2cc([N+](=O)[O-])ccc2N2CCOCC2)cc1, the activation was 0.569% (inactive).
For COc1ccccc1-c1ccc(/C=N/O)o1, the activation was -0.003% (inactive).
In the case of CCC(=O)OCCNc1cc(Sc2nc3ccccc3[nH]2)c2nonc2c1[N+](=O)[O-], the activation is reported as -0.037% (inactive).
With CC1CCN(C(=O)Cn2nnc(-c3ccccc3)n2)CC1 the activation was 0.315% (inactive).
In the case of CCCCNc1nc2c(-c3ccccc3)nnn2c2ccccc12, the activation is reported as 0.101% (inactive).
In the case of Cn1c2ccccc2c2cnn(CC(=O)Nc3ccccc3Br)c(=O)c21, the activation is reported as 0.034% (inactive).
For C[C@H](CO)N1C[C@H](C)[C@H](CN(C)Cc2ccccc2)Oc2ccc(NS(C)(=O)=O)cc2C1=O, the activation was -0.035% (inactive).
For CCOC(=O)Nc1cc2c(c(N)n1)N=C(c1ccccc1)CN2, the activation was -0.053% (inactive).
In the case of COc1ccc2c3c(n(C)c2c1)[C@@H](CO)N(C(=O)NC(C)C)CC31CN(C(C)=O)C1, the activation is reported as 0.015% (inactive).
For N/C(=N\c1nc(CSc2nc3ccccc3s2)cc(=O)[nH]1)Nc1ccc(F)cc1, the activation was 8.8% (inactive).
For CN1c2ccc(-c3ccc(C#N)cc3)cc2[C@@H]2[C@@H](CCN2C(=O)NC2CCCCC2)[C@H]1CO, the activation was 0.002% (inactive).
In the case of CC(C)(C)C1CCNC(=O)CC1 (stereo not drawn), the activation is reported as 0.008% (inactive).
With COc1ccc(-c2noc(-c3cccs3)n2)cc1OC the activation was 0.151% (inactive).
For O=C(Nc1c(Cl)cccc1Cl)Oc1cccc2cccnc12, the activation was -0.037% (inactive).
For COC(=O)c1c(NC(=O)c2ccc(C)cc2)csc1C, the activation was 0.018% (inactive).
In the case of Cc1ccc2[nH]c(C(=O)O)c(NC(=O)[C@@H]3C[C@@H]3c3ccccc3)c2c1, the activation is reported as -0.035% (inactive).
With COc1ccc(C(=O)Nc2c(F)c(F)c(F)c(F)c2F)cc1OC the activation was -0.047% (inactive).
For O=C1c2ccccc2C(=O)C1c1ccccc1, the activation was -0.024% (inactive).
With NNC(=O)c1sc(-c2ccccc2)cc1N the activation was 0.249% (inactive).
For COc1cc(NC(C)CCc2ccccc2)cc(OC)c1OC (stereo not drawn), the activation was -0.035% (inactive).
With Cc1ccc(C(=O)Cn2cncn2)cc1 the activation was -0.053% (inactive).

From PubChem BioAssay AID743394 (Broad Institute, 2014)
